Test results taken from EP4813463A2, “TYK2 INHIBITORS AND COMPOSITIONS AND METHODS THEREOF” (Lynk Pharmaceuticals Co. Ltd., priority 2023, dated 2024).
In brackets after ≈: the same amount, converted by molar mass. Like-named read-outs stand apart in the source and are kept apart here.

Assays:
[1] = system: Ba/F3-FL-TYK2-P760L cells; assay: Anti-proliferative assay in engineered Ba/F3 cells (Cell-Titer Glo, 72 h); type: cell-based; details: 72 h compound treatment, concentration that causes 50% growth inhibition, read-out: Baf3-FL-T2P760L
Summary of the method: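 Ba/F3 cells carrying Tel-dimerization/JAK kinase fusion, IL-3-independent, in RPMI-1640 + 10% FBS; 9-point 3-fold dilutions from 20 µM (0.1% DMSO) added after 24 h, 72 h at 37 °C. Viability by Cell-Titer Glo ATP luminescence; % inhibition versus DMSO cells, blank-corrected, giving IC50.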

Kinetic solubility = type: physicochemical; details: 100 mM pH 7.4 phosphate buffer, 1% DMSO, room temperature, read-out: Kinetics Solubility_PBS7.4
Experimental: Aliquots of 8 µL of reference and test compound stock solutions (10 mM/5 mM) are added into 792 µL of 100 mM pH 7.4 phosphate buffer. The final DMSO concentration is 1%. Sample tubes are shaken for 2 hours at 1000 rpm at room temperature. Samples are centrifuged at 12000 rpm for 10 min to precipitate un-dissolved particles. And transfer the supernatants to a new tube or plate. Add 5 µL of samples (no diluted, 10 times diluted, and 100 times diluted) and standard curve samples to 95 µL of ACN containing IS for LC-MS/MS analysis. Kinetic Solubilities Values of Exemplary Compounds

TYK2-JH2 domain = biological target: T1, TYK2-JH2 domain (Homo sapiens, UniProt P29597); assay: Binding activity test for JH2 domain of TYK2 (Tb-antibody/tracer FRET); details: for IC50: JH2 domain enzyme, 60 min at 25°C, then 4°C overnight, read-out: TYK2 JH2 Binding IC50; for JAK1/TYK2 selectivity: ratio of JAK1 JH2 to TYK2 JH2 binding IC50
T1 construct: JAK1-JH2 domain or TYK2-JH2 domain enzyme in assay buffer
T1 sequence (P29597 589-875 limits assumed): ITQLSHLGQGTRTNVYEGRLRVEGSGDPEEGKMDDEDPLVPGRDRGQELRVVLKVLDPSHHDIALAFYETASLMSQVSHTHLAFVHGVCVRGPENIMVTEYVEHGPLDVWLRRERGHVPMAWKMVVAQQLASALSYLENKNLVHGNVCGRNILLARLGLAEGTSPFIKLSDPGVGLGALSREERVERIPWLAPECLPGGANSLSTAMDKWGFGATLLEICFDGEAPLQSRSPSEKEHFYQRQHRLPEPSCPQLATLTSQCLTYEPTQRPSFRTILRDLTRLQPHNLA
Summary of the method: (§1)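 Competitive TR-FRET binding: compounds dispensed as an 11-point 3-fold dilution series, then Tb-labelled antibody and tracer added to the JH2 protein system. Incubated at 25°C, then overnight at 4°C; FRET signal read on Envision and IC50 (nM) derived.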

JAK1-JH2 domain = biological target: T2, JAK1-JH2 domain (Homo sapiens, UniProt P23458); assay: Binding activity test for JH2 domain of JAK1 (Tb-antibody/tracer FRET); details: JH2 domain enzyme; 60 min at 25°C, then 4°C overnight; read-out: JAK1 JH2 Binding IC50
T2 construct: JAK1-JH2 domain or TYK2-JH2 domain enzyme in assay buffer
T2 sequence (P23458 583-855 limits assumed): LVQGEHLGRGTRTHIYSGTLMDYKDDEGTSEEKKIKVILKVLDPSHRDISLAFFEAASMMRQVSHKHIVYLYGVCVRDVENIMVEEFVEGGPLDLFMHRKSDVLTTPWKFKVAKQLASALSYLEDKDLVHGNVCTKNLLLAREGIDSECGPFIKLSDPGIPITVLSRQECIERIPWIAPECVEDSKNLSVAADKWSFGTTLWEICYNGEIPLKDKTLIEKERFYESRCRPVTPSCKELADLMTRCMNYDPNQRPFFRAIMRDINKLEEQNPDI
Summary of the method: as §1

pSTAT1 = assay: Phosphorylation inhibition of STAT in human whole blood (IFN-alpha stimulated, flow cytometry); type: cell-based; details: T-cell, 20 min, IFN-alpha stimulation 20 mins, CD3 T cells, read-out: pSTAT1 inhibition in hWB (IC50)
Experimental: The inhibitory potential of test articles in human whole blood assay was evaluated by the method of flow cytometry.
IFN-alpha will activate JAK1 and TYK2 kinase in T cells by binding to IFN receptors, and then lead to phosphorylation of STAT1 and STAT2. The phosphorylated STAT1 enter nuclear and promote transcription and expression of IFN-gamma. To evaluate the efficacy of TYK2i in T cells, freshly collected human whole blood will be stimulated with certain unit of human IFN-alpha (Universal Type I IFN(1MU), R&D, 11200-2) for 20 mins in incubator. After stimulation, fix cells with Phosflow™ Fix Buffer I (BD, 557870), and then collect fixed cells by centrifugation (500 g, 8min). Wash cells once with pre-cooled PBS, and then permeabilize cells with cold Perm Buffer III buffer (BD, 558050) for 45 mins on ice. Collect cells by centrifugation (600 g, 8min) and washed twice with cold PBS. Stain cells with anti-human CD3(FITC Mouse Anti-Human CD3, BD, 555332) and anti-pSTAT1_Y701(Alexa Fluor 647 Mouse Anti-Stat1 (pY701), BD, 612597) antibodies. Detect pSTAT1 by flow cytometry (CytoFlex S) and analyze data with FlowJo and GraphPad Prism 8 software. IC50 values of test articles were determined using 4- parameter logistic equation.

[2] = Microsomal metabolic stability assay; type: in vitro ADME; details: human, liver microsomes, pH 7.4, 0.5 mg/mL microsomal protein, 1 µM test article, 2 mM NADPH; for microsomal CLint at 1 µM: read-out: Human LM Clint; for half-life at 1 µM: read-out: Human LM T1/2
Experimental: Microsomes were pre-incubated with test compound or control compounds for 5 min at 37°C in 100 mM potassium phosphate buffer, pH 7.4, 1.0 mM EDTA. The reaction was initiated by addition of 15 µL of the NADPH regenerating system to 30 µL of each incubation mixture per time point. The final incubation condition was composed of 0.5 mg/mL microsomal protein, 1 µM test article/positive control, 2 mM NADPH. The 0-minute samples were prepared by addition of a 30 µL aliquot of each incubation mixture to 135 µL quench reagent to precipitate proteins. And then a 15 µL aliquot of the NADPH regenerating system was added. At 5, 15, 30 and 45 minutes, the reaction will be stopped by the addition of cold acetonitrile solution containing internal standard. The samples taken at all time points were centrifuged at 5000×g for 15 minutes. 50 µL of supernatant are taken into 96-well assay plates pre-added with 50 µL ultrapure water, and then analyzed by LC/MS/MS.
Concentrations of test articles, control compounds in the samples were determined by using LC/MS/MS method. Plotting of the chromatograms and peak area integrations are carried out by Analyst (AB Sciex).
In the determination of the in vitro elimination constant (ke) of the control compounds, the analyte/internal standard peak area ratios will be converted to percentage remaining (%Remaining) with the following equation: %Remaining = (Peak area ratio of analyte to IS at each time point)/(Peak area ratio of analyte to IS at t = 0) × 100% [formula]
The CLint of microsomes was calculated using the formula: CLint (mic)=0.693/T1/2 /mg microsome protein per mL. The slope was measured by the natural logarithm of the percentage of the residual compound and time, T1/2 was calculated according to the following formula. T = (0.693)/(−slope) [formula]

[3] = phosphate buffer, pH 7.4, aqueous buffer, kinetic from dmso stock

| Compound | IC50 [1] | solubility kinetic at 2 h (Kinetic solubility) | IC50 (TYK2-JH2 domain) | JAK1/TYK2 selectivity (TYK2-JH2 domain) | IC50 (JAK1-JH2 domain) | IC50 (pSTAT1) | IC50 ([1]; Mus musculus, BaF3, 72 h) | solubility kinetic at 2 h (Kinetic solubility; [3]) | microsomal CLint at 1 µM [2] | half-life at 1 µM [2] |
| --- | --- | --- | --- | --- | --- | --- | --- | --- | --- | --- |
| [2H]C([2H])([2H])NC(=O)c1cnc(NC(=O)C2CC2)cc1Nc1cnn2ccc(C(C)C(F)(F)F)c(OC)c12 (single isomer, unassigned) [Example 9A, (R*) -6-(cyclopropanecarboxamido)-4-((4-methoxy-5-(1,1,1-trifluoropropan-2-yl)pyrazolo[1,5-a]pyridin-3-yl)amino)-N-(methyl-d3)nicotinamide] | 2140 nM | 35.80 µM (≈ 17.2 µg/mL) | 0.424 nM | 91.9 | 39 nM |  |  |  |  |  |
| [2H]C([2H])([2H])NC(=O)c1cnc(NC(=O)C2CC2)cc1Nc1nn(CC)c2ccc(C(O)C(F)(F)F)c(OC)c12 (single isomer, unassigned) [Example 71A, (S*)-6-(cyclopropanecarboxamido)-4-((1-ethyl-4-methoxy-5-(2,2,2-trifluoro-1-hydroxyethyl)-1H-indazol-3-yl)amino)-N-(methyl-d3)nicotinamide] | 0.412 nM |  | 0.14 nM | 51.84 | 7.26 nM | 54.9 nM |  |  |  |  |
| [2H]C([2H])([2H])NC(=O)c1cnc(NC(=O)C2CC2)nc1Nc1cnn2ccc(Cl)c(OC)c12 [Example 4, 4-((5-Chloro-4-methoxypyrazolo[1,5-a]pyridin-3-yl)amino)-2-(cyclopropanecarboxamido)-N-(methyl-d3)pyrimidine-5-carboxamide] |  |  | 0.164 nM | 93.5 | 15.3 nM | 312 nM | 38.9 nM |  |  |  |
| [2H]C([2H])([2H])NC(=O)c1cnc(NC(=O)C2CC2)cc1Nc1cnn2ccc(C(C)C(F)(F)F)c(OC)c12 (stereo not drawn) [Example 9, 6-(Cyclopropanecarboxamido)-4-((4-methoxy-5-(1,1,1-trifluoropropan-2-yl)pyrazolo[1,5-a]pyridin-3-yl)amino)-N-(methyl-d3)nicotinamide] | 51.6 nM |  | 0.158 nM | 55.4 | 8.76 nM |  |  | 60 µM (≈ 28.8 µg/mL) |  |  |
| [2H]C([2H])([2H])NC(=O)c1cnc(NC(=O)C2CC2)cc1Nc1cnn2ccc(C#N)c(OC)c12 [Example 12, 4-((5-Cyano-4-methoxypyrazolo[1,5-a]pyridin-3-yl)amino)-6-(cyclopropanecarboxamido)-N-(methyl-d3)nicotinamide] |  |  | 0.308 nM | 68.5 | 21.1 nM |  | 194 nM | 15.1 µM (≈ 6.18 µg/mL) |  |  |
| [2H]C([2H])([2H])NC(=O)c1cnc(NC(=O)C2CC2)cc1Nc1cnn2ccc(CC#N)c(OC)c12 [Example 18, 4-((5-(Cyanomethyl)-4-methoxypyrazolo[1,5-a]pyridin-3-yl)amino)-6-(cyclopropanecarboxamido)-N-(methyl-d3)nicotinamide] |  |  | 0.13 nM | 12.5 | 1.63 nM | 84.3 nM | 90.3 nM |  |  |  |
| [2H]C([2H])([2H])NC(=O)c1cnc(NC(=O)C2(F)CC2)cc1Nc1cnn2ccc([C@H](O)C(F)(F)F)c(OC)c12 [Example 19, (S)-6-(1-fluorocyclopropane-1-carboxamido)-4-((4-methoxy-5-(2,2,2-trifluoro-1-hydroxyethyl)pyrazolo[1,5-a]pyridin-3-yl)amino)-N-(methyl-d3)nicotinamide] |  |  | 0.273 nM | 1011.9 | 276 nM |  | 137 nM | 22.7 µM (≈ 11.3 µg/mL) |  |  |
| [2H]C([2H])([2H])NC(=O)c1cnc(NC(=O)C2CC2)cc1Nc1cnn2ccc(CO)c(OC)c12 [Example 22, 6-(Cyclopropanecarboxamido)-4-((5-(hydroxymethyl)-4-methoxypyrazolo[1,5-a]pyridin-3-yl)amino)-N-(methyl-d3)nicotinamide] |  |  | 0.185 nM | 40.6 | 7.5 nM | 80.8 nM | 127 nM |  | 4.5 µL/min/mg | 5.13 h |
| [2H]C([2H])([2H])NC(=O)c1nnc(NC(=O)C2CC2)cc1Nc1nn(C)c2ccc([C@H](OC)C(F)(F)F)c(OC)c12 [Example 51B, (S)-6-(cyclopropanecarboxamido)-4-((4-methoxy-1-methyl-5-(2,2,2-trifluoro-1-methoxyethyl)-1H-indazol-3-yl)amino)-N-(methyl-d3)pyridazine-3-carboxamide] |  |  | 0.171 nM | 7.43 | 1.27 nM | 76.5 nM | 0.399 nM |  | 8.06 µL/min/mg | 2.87 h |
| CNC(=O)c1nnc(NC(=O)C2CC2)cc1Nc1nc2ccc(N3CC(OC)C3)cn2n1 [Example 188, 6-(Cyclopropanecarboxamido)-4-((6-(3-methoxyazetidin-1-yl)-[1,2,4]triazolo[1,5-a]pyridin-2-yl)amino)-N-methylpyridazine-3-carboxamide, reference compound] |  |  |  |  |  |  |  | 1.01 µM (≈ 0.442 µg/mL) |  |  |
| [2H]C([2H])([2H])NC(=O)c1cnc(NC(=O)[C@@H]2C[C@@H]2F)cc1Nc1nn(C)c2ccc([C@H](OC([2H])([2H])[2H])C(F)(F)F)c(OC)c12 [Example 192, 6-((1S,2S)-2-Fluorocyclopropane-1-carboxamido)-4-((4-methoxy-1-methyl-5-((S)-2,2,2-trifluoro-1-(methoxy-d3)ethyl)-1H-indazol-3-yl)amino)-N-(methyl-d3)nicotinamide] |  |  | 0.075 nM | 35.08 | 2.63 nM | 24.6 nM | 0.088 nM |  |  |  |
| [2H]C([2H])([2H])NC(=O)c1nnc(NC(=O)C2CC2)cc1Nc1ncn2cccc2c1OC [Example 198, 6-(Cyclopropanecarboxamido)-4-((4-methoxypyrrolo[1,2-c]pyrimidin-3-yl)amino)-N-(methyl-d3)pyridazine-3-carboxamide, reference compound] |  |  | 1.48 nM | 7.0 | 10.4 nM | 1470 nM | 260 nM |  |  |  |
